Reference: patent publication US20060079558A1, “R-isomer of 2-{2[N-(2-indanyl)-N-phenylamino]ethyl}piperidine and other dermal anesthetics” (Bridge Pharma. Inc., priority 2004, published 2006)
Entries after “also recorded” stand apart in the source; their conditions may differ.

Assays:
[1] = cited from earlier work
[2] = tested on: skin on the back of male or female guinea pigs; assay: Dermal anesthetic activity, pin-prick method after dermal application; assay type: in vivo; settings: for onset of dermal anesthetic activity (onset time): comparison of enantiomers and racemate, in words; for dermal anesthetic effects (anesthetic score): score after 30 min application, FIG. 1, 10% solution of base in water/DMSO, maximum = 6
Description: Approximately 18-24 hours before each experiment, the skin on the back of male or female guinea pigs was shaved and depilated with a commercially available hair remover. The anesthetic action of each agent following dermal application was determined using a “pin-prick” method as described by Aberg (Acta Pharmacol Toxicol, 1972, 31: 273-286). Before and at various intervals after treatment, the area of the skin was tested for the presence or absence of a skin twitch in response to six standardized dermal probings with a pointed metal “algesimeter” at a predetermined maximum load of 10 grams. The average number of probings not producing a skin twitch response was designated as the “anesthetic score”. In this test system no response to six stimuli represents a “maximal anesthetic activity”. In the present calculations, the dermal anesthetic activity was calculated from the time of removal of the test article formulation from the skin until skin twitch responses to all but one pinprick were identified. In experiments on the dermal anesthetic activity, a single area of skin 1 inch square was marked off on the middle of the back of each animal. This area was covered by a 1 inch square, 16 layer thick gauze pad onto which was deposited 0.45 ml of a 10% solution of the test agent dissolved in a mixture of water and DMSO. The gauze pad was covered with a 1.5 inch square sheet of Saran Wrap™ which was attached to the surrounding skin with tape. The entire area was then covered by wrapping an elastic bandage around the trunk of the animal. After a predetermined duration of treatment, the coverings were removed and the skin assessed for the presence of anesthesia as described above. Dermal anesthesia tests were performed at ten-minute intervals to measure onset time and duration of dermal anesthetic activity; comparisons were made with reference compounds and vehicle. All test compounds were in the base form and dissolved in DMSO/water when tested for dermal anesthesia.

[3] = Comparison studies of dermal toxicity; assay type: in vivo; settings: in words

Structure (SMILES) | local anesthetic activity ([1]; racemate, U.S. Pat. No. 6,413,987) | tissue toxicity ([1]; racemic mixture, as described in U.S. Pat. No. 6,413,987) | onset of dermal anesthetic activity (onset time) [2] | dermal anesthetic effects (anesthetic score) [2] | dermal toxicity [3]
c1ccc(N(CCC2CCCCN2)C2Cc3ccccc3C2)cc1 (racemic) [RS-LAC-34, 2-{2-[N-(2-indanyl)-N-phenylamino]ethyl}piperidine] | active local anesthetic compound | little, if any, tissue toxicity | – | – | –
c1ccc(N(CC[C@H]2CCCCN2)C2Cc3ccccc3C2)cc1 [R-LAC-34, R-2-{2-[N-(2-indanyl)-N-phenylamino]ethyl}piperidine] | – | – | shorter onset of action than both the racemate and the S-isomer; also recorded: significantly shorter; also recorded: shorter onset time than the racemic mixture or the S-isomer | 3.5 | low dermal toxicity
c1ccc(N(CCC2CCCCN2)C2Cc3ccccc3C2)cc1 (stereo not shown) [S-LAC-34, reference compound] | – | – | longer onset of action | 2.6 | –
